Values quoted from earlier work in patent US7807833B2, “Method for total synthesis of ecteinascidins and intermediate compounds thereof” (Japan Science and Technology Agency, priority 2002, dated 2010).
pIC50: −log10 of the molar value.

Tested on: cancer cells

pIC50 (background statement, cell lines not named, read-out: IC50, depressing the proliferation of cancer cells) | Compound | times more potent than Toxol, Camptotesin, Adriamycin or Mitomycin in depressing the proliferation of cancer cells (relative to currently used carcinostatic agents) | antineoplastic activity compared with ET 743 (qualitative background statement)
9.00 to 10.00 | COc1cc2c(cc1O)CCN[C@]21CS[C@@H]2c3c(OC(C)=O)c(C)c4c(c3[C@H](COC1=O)N1[C@@H]2[C@H]2c3c(cc(C)c(OC)c3O)C[C@@H]([C@@H]1O)N2C)OCO4 [Et 743, ecteinascidin 743] | 10 to 100 times | –
– | COc1c(C)cc2c(c1O)[C@@H]1[C@@H]3Cc4c(OC(C)=O)c(C)c5c(c4[C@H](CN4C(=O)c6ccccc6C4=O)N3[C@@H](C#N)[C@H](C2)N1C)OCO5 [phthalascidin] | – | same activity to ET 743
